From patent US9333195B2 (priority 1999, dated 2016)
Counter-ions that a name gives are not always drawn.

The compounds below were run against human muscarinic receptors Hm3 (Homo sapiens (Human), UniProt P20309) (assay: biochemical). Settings: not given.
Type: binding
Work on `O=C(O[C@H]1C[N+]2(CC=Cc3ccccc3)CCC1CC2)C(O)(c1ccccc1)c1ccco1` (mixture of isomers) [Example 17, 3(R)-(2-Furan-2-yl-2-hydroxy-2-phenylacetoxy)-1-(3-phenylallyl)-1-azoniabicyclo[2.2.2]octane; bromide] yielded an IC50 of 14 nM.

Same assay, conditions: read-out: BINDING TO RECEPTOR M3 (IC50 nM)
Work on `O=C(O[C@H]1C[N+]2(CCCOc3ccccc3)CCC1CC2)C(c1ccccc1)c1ccccc1` [Example 1, 3 (R)-Diphenylacetoxy-1-(3-phenoxypropyl)-1-azoniabicyclo[2.2. 2]octane; bromide] yielded an IC50 of 31 nM.
`O=C(O[C@H]1C[N+]2(CCCc3cccs3)CCC1CC2)C(O)(c1cccs1)c1cccs1` [Example 78, 3(R)-(2-Hydroxy-2,2-dithien-2-ylacetoxy)-1-(3-thien-2-ylpropyl)-1-azoniabicyclo[2.2.2]octane; bromide] was tested, and the IC50 was 5 nM.
In the case of `O=C(O[C@H]1C[N+]2(CCOCc3ccccc3)CCC1CC2)C(O)(c1cccs1)c1cccs1` [Example 84, 1-(2-Benzyloxyethyl)-3(R)-(2-hydroxy-2,2-dithien-2-ylacetoxy)-1-azoniabicyclo[2.2.2]octane; trifluoroacetate], the IC50 is reported as 9.9 nM.
`O=C(O[C@H]1C[N+]2(CCCc3cccs3)CCC1CC2)C1(O)c2ccccc2Oc2ccccc21` [Example 138, 3(R)-(9-Hydroxy-9H-xanthene-9-carbonyloxy)-1-(3-thien-2-ylpropyl)-1-azoniabicyclo[2.2.2]octane; bromide] showed an IC50 of 19 nM.
`O=C(O[C@H]1C[N+]2(CCCOc3ccccc3)CCC1CC2)C(O)(c1ccsc1)c1ccsc1` [Example 89, 3(R)-(2-Hydroxy-2,2-dithien-3-ylacetoxy)-1-(3-phenoxypropyl)-1-azoniabicyclo[2.2.2]octane; bromide] was tested, and the IC50 was 5.4 nM.
With `O=C(O[C@H]1C[N+]2(CCCOc3ccc(F)cc3)CCC1CC2)C(O)(c1cccs1)c1cccs1` [Example 53, 1-[3-(4-Fluorophenoxy)propyl]-3(R)-(2-hydroxy-2,2-dithien-2-ylacetoxy)-1-azoniabicyclo[2.2.2]octane; chloride] the IC50 was 5.6 nM.
`O=C(O[C@H]1C[N+]2(CCOc3ccccc3)CCC1CC2)C(O)(c1ccccc1)c1ccco1` (stereo partly drawn) [Example 18, 3(R)-(2-Furan-2-yl-2-hydroxy-2-phenylacetoxy)-1-(2-phenoxyethyl)-1-azoniabicyclo[2.2.2]octane; bromide] showed an IC50 of 6.6 nM.
For `CC(C(=O)O[C@H]1C[N+]2(CCCOc3ccccc3)CCC1CC2)(c1ccccc1)c1ccccc1` [Example 7, 3(R)-(2,2-Diphenylpropionyloxy)-1-(3-phenoxypropyl)-1-azoniabicyclo[2.2.2]octane; bromide], the IC50 was 22 nM.
`O=C(O[C@H]1C[N+]2(CCCOc3ccccc3O)CCC1CC2)C(O)(c1cccs1)c1cccs1` [Example 71, 3(R)-(2-Hydroxy-2,2-dithien-2-ylacetoxy)-1-[3-(2-hydroxyphenoxy)propyl]-1-azoniabicyclo[2.2.2]octane; trifluoroacetate] was tested, and the IC50 was 8.2 nM.
`O=C(O[C@H]1C[N+]2(CCCCc3ccccc3)CCC1CC2)C(O)(c1cccs1)c1cccs1` [Example 39, 3(R)-(2-Hydroxy-2,2-dithien-2-ylacetoxy)-1-(4-phenylbutyl)-1-azoniabicyclo[2.2.2]octane; bromide] showed an IC50 of 3.8 nM.
`CC1(C(=O)O[C@H]2C[N+]3(CC=Cc4ccccc4)CCC2CC3)c2ccccc2-c2ccccc21` [Example 114, 3(R)-(9-Methyl-9[H]-fluorene-9-carbonyloxy)-1-(3-phenylallyl)-1-azoniabicyclo[2.2.2]octane; bromide] showed an IC50 of 14 nM.
`O=C(O[C@H]1C[N+]2(CCCOc3ccccc3)CCC1CC2)C(O)(c1ccccc1)c1cccs1` (stereo partly drawn) [Example 8, 3(R)-(2-Hydroxy-2-phenyl-2-thien-2-ylacetoxy)-1-(3-phenoxypropyl)-1-azoniabicyclo[2.2.2]octane; bromide] showed an IC50 of 4.8 nM.
Work on `O=C(O[C@H]1C[N+]2(CCCOc3ccccc3)CCC1CC2)C(O)(c1ccccc1)c1ccco1` (stereo partly drawn) [Example 20, 3(R)-(2-Furan-2-yl-2-hydroxy-2-phenylacetoxy)-1-(3-phenoxypropyl)-1-azoniabicyclo[2.2.2]octane; bromide] yielded an IC50 of 6.8 nM.
In the case of `CC1(C(=O)O[C@H]2C[N+]3(CCCOc4ccccc4)CCC2CC3)c2ccccc2-c2ccccc21` [Example 116, 3(R)-(9-Methyl-9[H]-fluorene-9-carbonyloxy)-1-(3-phenoxypropyl)-1-azoniabicyclo[2.2.2]octane; bromide], the IC50 is reported as 23 nM.
For `O=C(O[C@H]1C[N+]2(CCCn3cccc3)CCC1CC2)C(O)(c1cccs1)c1cccs1` [Example 74, 3(R)-(2-Hydroxy-2,2-dithien-2-ylacetoxy)-1-(3-pyrrol-1-ylpropyl)-1-azoniabicyclo[2.2.2]octane; trifluoroacetate], the IC50 was 16 nM.
`O=C(O[C@H]1C[N+]2(CCCOc3ccccc3)CCC1CC2)C(c1cccs1)c1cccs1` [Example 35, 3(R)-(2,2-Dithien-2-ylacetoxy)-1-(3-phenoxypropyl)-1-azoniabicyclo[2.2.2]octane; bromide] showed an IC50 of 13 nM.
